Assay results: US9255110B2 (Hoffmann-La Roche Inc., priority 2010, dated 2016)
pIC50: −log10 of the molar value.

target: IRAK-4 (Homo sapiens (Human), UniProt Q9NWZ3); experiment: In vitro IRAK-4 kinase assay; format: biochemical; conditions: purified recombinant IRAK-4, 50 uM ATP, 33P peptide phosphorylation
Experimental: Purified recombinant IRAK-4 protein was incubated with 250 uM synthetic peptide ([…]) in 30 ul of kinase buffer including (20 mM MOPS pH7.2, 25 mM beta glycerol phosphate, 5 mM EGTA, 1 mM sodium orthovanadate, 1 mM DTT, 50 uM ATP, 20 mM MgCl2, 10 uCi γ-^33P, 0.1% BSA) for the indicated time. For purified recombinant IRAK-1 protein kinase assay, 50 uM ATP was used. A 25 ul aliquot of the reaction mixture was transferred on to p81 phosphocellulose squares (Upstate Biotechnology, Lake Placid, N.Y.). The assay squares were washed three times with 0.75% phosphoric acid and once with acetone. Enzyme activity was measured by determining the bound radioactivity by liquid scintillation counting.

Sequence of IRAK-4 (Q9NWZ3 whole entry, species assumed): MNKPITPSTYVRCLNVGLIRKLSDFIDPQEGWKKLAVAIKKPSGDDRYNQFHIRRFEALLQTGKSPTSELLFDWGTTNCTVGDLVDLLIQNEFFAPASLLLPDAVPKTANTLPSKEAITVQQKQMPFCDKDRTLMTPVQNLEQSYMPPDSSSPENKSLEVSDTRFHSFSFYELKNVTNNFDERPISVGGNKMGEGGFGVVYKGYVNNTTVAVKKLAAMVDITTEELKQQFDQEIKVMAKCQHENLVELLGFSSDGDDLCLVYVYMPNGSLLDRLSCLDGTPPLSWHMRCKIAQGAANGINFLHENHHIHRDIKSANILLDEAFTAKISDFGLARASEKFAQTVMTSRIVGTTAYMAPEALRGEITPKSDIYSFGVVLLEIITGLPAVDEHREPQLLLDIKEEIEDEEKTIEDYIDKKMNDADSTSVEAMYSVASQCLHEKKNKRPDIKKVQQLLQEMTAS

Row | Structure (SMILES) | pIC50
1 | O=C(Nc1cc(Cl)ccc1N1CCC(O)C1)c1cnn2cccnc12 (stereo not drawn) [Example 95, Pyrazolo[1,5-alpha]pyrimidine-3-carboxylic acid [5-chloro-2-(3-hydroxy-pyrrolidin-1-yl)-phenyl]-amide] | 6.31
2 | O=C(Nc1cc(Cl)ccc1OCCC(O)CO)c1cnn2cccnc12 (stereo not drawn) [Example 96, Pyrazolo[1,5-alpha]pyrimidine-3-carboxylic acid [5-chloro-2-(3,4-dihydroxy-butoxy)-phenyl]-amide] | 6.30
3 | O=C(Nc1cc(Cl)ccc1N1CCOCC1)c1cnn2cccnc12 [Example 99, Pyrazolo[1,5-alpha]pyrimidine-3-carboxylic acid (5-chloro-2-morpholin-4-yl-phenyl)-amide] | 6.28
4 | O=C(Nc1cc(Cl)ccc1-c1ccccc1)c1cnn2cccnc12 [Example 100, Pyrazolo[1,5-alpha]pyrimidine-3-carboxylic acid (4-chloro-biphenyl-2-yl)-amide] | 6.27
5 | COc1cc2cc[nH]c2cc1NC(=O)c1csc2cncnc12 [Example 102, Thieno[3,2-d]pyrimidine-7-carboxylic acid (5-methoxy-1H-indol-6-yl)-amide] | 6.22
6 | COc1cc2ccccc2cc1NC(=O)c1cnn2cccnc12 [Example 104, Pyrazolo[1,5-alpha]pyrimidine-3-carboxylic acid (3-methoxy-naphthalen-2-yl)-amide] | 6.21
7 | COc1cc2cc[nH]c2cc1NC(=O)c1cnn2cccnc12 [Example 110, Pyrazolo[1,5-alpha]pyrimidine-3-carboxylic acid (5-methoxy-1H-indol-6-yl)-amide] | 6.10
8 | CSc1ccc(Cl)cc1NC(=O)c1cnn2cccnc12 [Example 111, Pyrazolo[1,5-alpha]pyrimidine-3-carboxylic acid (5-chloro-2-methylsulfanyl-phenyl)-amide] | 6.10
9 | O=C(Nc1cc(Cl)ccc1C1CCCCC1)c1cnn2cccnc12 [Example 112, Pyrazolo[1,5-alpha]pyrimidine-3-carboxylic acid (5-chloro-2-cyclohexyl-phenyl)-amide] | 6.10
10 | O=C(Nc1cccc(NCCO)c1N1CCCCC1)c1cnn2cccnc12 [Example 114, Pyrazolo[1,{tildeover (5)}alpha] pyrimidine-3-carboxylic acid [3-(2-hydroxy-ethylamino)-2-piperidin-1-yl-phenyl]-amide] | 5.99
11 | O=C(Nc1ccccc1-c1ccccc1)c1cnn2cccnc12 [Example 116, Pyrazolo[1,5-alpha]pyrimidine-3-carboxylic acid biphenyl-2-ylamide] | 5.91
12 | NC1CCC(Oc2ccc(Cl)cc2NC(=O)c2csc3cncnc23)CC1 (stereo not drawn) [Example 118, Thieno[3,2-d]pyrimidine-7-carboxylic acid [2-(4-amino-cyclohexyloxy)-5-chloro-phenyl]-amide] | 5.83
13 | O=C(Nc1cc(Cl)ccc1OC1CCC(O)C1)c1csc2cncnc12 (stereo not drawn) [Example 120, Thieno[3,2-d]pyrimidine-7-carboxylic acid [5-chloro-2-(3-hydroxy-cyclopentyloxy)-phenyl]-amide] | 5.82
14 | Cc1ncoc1COc1ccc(Cl)cc1NC(=O)c1cnn2cccnc12 [Example 121, Pyrazolo[1,5-alpha]pyrimidine-3-carboxylic acid [5-chloro-2-(4-methyl-oxazol-5-ylmethoxy)-phenyl]-amide] | 5.81
15 | COc1ccc(Br)cc1NC(=O)c1cnn2cccnc12 [Example 127, Pyrazolo[1,5-alpha]pyrimidine-3-carboxylic acid (5-bromo-2-methoxy-phenyl)-amide] | 5.67
16 | COc1ccc(Cl)cc1NC(=O)c1csc2cncnc12 [Example 128, Thieno[3,2-d]pyrimidine-7-carboxylic acid (5-chloro-2-methoxy-phenyl)-amide] | 5.66
17 | CC[C@@H](CO)Nc1ncc2scc(C(=O)Nc3cc(Cl)ccc3OC)c2n1 [Example 131, 2-(1-Hydroxymethyl-propylamino)-thieno[3,2-d]pyrimidine-7-carboxylic acid (5-chloro-2-methoxy-phenyl)-amide] | 5.65

Next, values leading:

Row | pIC50 | Structure (SMILES)
18 | 6.32 | O=C(Nc1cc(Cl)ccc1-c1ccc(O)cc1)c1cnn2cccnc12 [Example 94, Pyrazolo[1,5-alpha]pyrimidine-3-carboxylic acid (4-chloro-4′-hydroxy-biphenyl-2-yl)-amide]
19 | 6.29 | CN1CCN(c2ccc(Cl)cc2NC(=O)c2cnn3cccnc23)CC1 [Example 97, Pyrazolo[1,5-alpha]pyrimidine-3-carboxylic acid [5-chloro-2-(4-methyl-piperazin-1-yl)-phenyl]-amide]
20 | 6.29 | O=C(Nc1cc(Cl)ccc1OCc1cnco1)c1cnn2cccnc12 [Example 98, Pyrazolo[1,5-alpha]pyrimidine-3-carboxylic acid [5-chloro-2-(oxazol-5-ylmethoxy)-phenyl]-amide]
21 | 6.25 | NCC1CCN(c2ccc(Cl)cc2NC(=O)c2cnn3cccnc23)C1 (stereo not drawn) [Example 101, Pyrazolo[1,5-alpha]pyrimidine-3-carboxylic acid [2-(3-aminomethyl-pyrrolidin-1-yl)-5-chloro-phenyl]-amide]
22 | 6.22 | O=C(Nc1cc(Cl)ccc1OC1CCCC(O)C1)c1cnn2cccnc12 (stereo not drawn) [Example 103, Pyrazolo[1,5-alpha]pyrimidine-3-carboxylic acid [5-chloro-2-(3-hydroxy-cyclohexyloxy)-phenyl]-amide]
23 | 6.19 | COc1cc(C(=O)NCCCO)ccc1NC(=O)c1cnn2cccnc12 [Example 105, Pyrazolo[1,5-alpha]pyrimidine-3-carboxylic acid [4-(3-hydroxy-propylcarbamoyl)-2-methoxy-phenyl]-amide]
24 | 6.19 | O=C(Nc1cc(Cl)ccc1N1CCC(CO)C1)c1cnn2cccnc12 (stereo not drawn) [Example 106, Pyrazolo[1,5-alpha]pyrimidine-3-carboxylic acid [5-chloro-2-(3-hydroxymethyl-pyrrolidin-1-yl)-phenyl]-amide]
25 | 6.14 | O=C(Nc1cc(Cl)ccc1OC(F)F)c1cnn2cccnc12 [Example 107, Pyrazolo[1,5-alpha]pyrimidine-3-carboxylic acid (5-chloro-2-difluoromethoxy-phenyl)-amide]
26 | 6.13 | CN(C)c1ccc(Cl)cc1NC(=O)c1cnn2cccnc12 [Example 108, Pyrazolo[1,5-alpha]pyrimidine-3-carboxylic acid (5-chloro-2-dimethylamino-phenyl)-amide]
27 | 6.12 | NC1CCN(c2ccc(Cl)cc2NC(=O)c2cnn3cccnc23)C1 (stereo not drawn) [Example 109, Pyrazolo[1,5-alpha]pyrimidine-3-carboxylic acid [2-(3-amino-pyrrolidin-1-yl)-5-chloro-phenyl]-amide]
28 | 6.08 | COc1cc(C(=O)NCCCO)ccc1NC(=O)c1csc2cncnc12 [Example 113, Thieno[3,2-d]pyrimidine-7-carboxylic acid [4-(3-hydroxy-propylcarbamoyl)-2-methoxy-phenyl]-amide]
29 | 5.98 | Cc1ncoc1COc1ccc(Cl)cc1NC(=O)c1csc2cncnc12 [Example 115, Thieno[3,2-d]pyrimidine-7-carboxylic acid [5-chloro-2-(4-methyl-oxazol-5-ylmethoxy)-phenyl]-amide]
30 | 5.84 | CC(C)(CCO)Oc1ccc(Cl)cc1NC(=O)c1csc2cncnc12 [Example 117, Thieno[3,2-d]pyrimidine-7-carboxylic acid [5-chloro-2-(3-hydroxy-1,1-dimethyl-propoxy)-phenyl]-amide]
31 | 5.82 | O=C(Nc1cc(Cl)ccc1N1CCCCCC1)c1cnn2cccnc12 [Example 119, Pyrazolo[1,5-alpha]pyrimidine-3-carboxylic acid (2-azepan 1-yl-5-chloro-phenyl)-amide]
32 | 5.79 | COc1cc(C(=O)NCCO)ccc1NC(=O)c1csc2cncnc12 [Example 122, Thieno[3,2-d]pyrimidine-7-carboxylic acid [4-(2-hydroxy-ethylcarbamoyl)-2-methoxy-phenyl]-amide]
33 | 5.79 | COc1ccc(Cl)cc1NC(=O)c1cnn2cccnc12 [Example 123, Pyrazolo[1,5-alpha]pyrimidine-3-carboxylic acid (5-chloro-2-methoxy-phenyl)-amide]
34 | 5.77 | COCCOc1ccc(Cl)cc1NC(=O)c1cnn2cccnc12 [Example 124, Pyrazolo[1,5-alpha]pyrimidine-3-carboxylic acid [5-chloro-2-(2-methoxy-ethoxy)-phenyl]-amide]
35 | 5.69 | O=C(Nc1cc(Cl)ccc1-c1cccc(O)c1)c1cnn2cccnc12 [Example 125, Pyrazolo[1,5-alpha]pyrimidine-3-carboxylic acid (4-chloro-3′-hydroxy-biphenyl-2-yl)-amide]
36 | 5.69 | COc1ccc(Cl)cc1NC(=O)c1csc2cnc(NCCCO)nc12 [Example 126, 2-(3-Hydroxy-propylamino)-thieno[3,2-d]pyrimidine-7-carboxylic acid (5-chloro-2-methoxy-phenyl)-amide]
37 | 5.66 | CN(CCO)c1ccc(Cl)cc1NC(=O)c1cnn2cccnc12 [Example 129, Pyrazolo[1,5-alpha]pyrimidine-3-carboxylic acid {5-chloro-2-[(2-hydroxy-ethyl)-methyl-amino]-phenyl}-amide]
38 | 5.65 | O=C(Nc1cc(Cl)ccc1Oc1ccc(O)cc1)c1cnn2cccnc12 [Example 130, Pyrazolo[1,5-alpha]pyrimidine-3-carboxylic acid [5-chloro-2-(4-hydroxy-phenoxy)-phenyl]-amide]
39 | 5.65 | COc1ccc(Cl)cc1NC(=O)c1csc2cnc(NCCO)nc12 [Example 132, 2-(2-Hydroxy-ethylamino)-thieno[3,2-d]pyrimidine-7-carboxylic acid (5-chloro-2-methoxy-phenyl)-amide]
